Bridge positions count the residues as written; N and C are the ends. Square brackets hold non-standard residues; d marks the D form. Peptide text beside a SMILES is read from it. * marks the point of attachment. Palmitoyl = CCCCCCCCCCCCCCCC(=O)*; Dap = NC[C@H](N)C(=O)O; AEEA = NCCOCCOCC(=O)O
Test system: C57BL/6J mice
Test: Bleomycin mouse model of idiopathic pulmonary fibrosis, alveolar area (FIG. 8)
Format: in vivo
Conditions: Day 21
Description: FIGS. 8A-8B. […] Additionally, a normal control group (NC; n=3) without Bleo, and a Bleo Control group (n=7) without test article treatment were also included in this study. On Day 21 post Bleo administration, the mice were sacrificed under isoflurane anesthesia, and their lung tissues were harvested. FIG. 8B) A part of the lung tissue was fixed in 4% PFA, and Azan staining was performed, and alveolar areas (inversely proportional to the degree of fibrosis) were measured by Image J in a blinded setting. Error bars indicate standard error of the mean. Statistical analysis was performed by Student t-test on GraphPad Prism (n=3, 7, 7, 7, and 7); NC, Bleo Control, SEQ ID NO: 31, Pir, and Combo (SEQ ID NO: 31 & pirfenidone) *** P<0.001, ns=not significant vs NC.
Animal care and treatment: Male C57BL/6J mice (6 weeks-old) were purchased from Kyudo (Saga, Japan) and maintained under a 12-hour light/12-hour dark cycle with free access to water and standard mouse diet (MF diet, Oriental Yeast Co., Ltd. Tokyo, Japan). To induce lung fibrosis, mice received IT administration of bleomycin (Bleo; 1.0 mg/kg; Nippon Kayaku Tokyo, Japan). […] Alveolar area, which is inversely proportional to fibrotic area, were measured by Image J in a blinded setting (NIH, Bethesda, MD, USA).

Q: How did the “Alveolar area (inversely proportional to fibrosis)” value (alone, 0.3 mg/kg SC once a day on weekdays from day 7) turn out when `CCCCCCCCCCCCCCCC(=O)NCCOCCOCC(=O)NCCOCCOCC(=O)NCCOCCOCC(=O)N[C@@H](CN)C(=O)N[C@@H](CN)C(=O)NCC(=O)N[C@@H](CC(C)C)C(=O)N[C@@H](CO)C(=O)N[C@@H](CCCCN)C(=O)NCC(=O)N[C@H]1CSSC[C@@H](C(=O)O)NC(=O)CNC(=O)[C@H](CC(C)C)NC(=O)CNC(=O)[C@H](CO)NC(=O)[C@H](CCC(N)=O)NC(=O)[C@H](CO)NC(=O)CNC(=O)[C@H]([C@@H](C)CC)NC(=O)[C@H](CCCNC(=N)N)NC(=O)[C@H](CC(=O)O)NC(=O)[C@H](CC(C)C)NC(=O)[C@H](CCCCN)NC(=O)[C@H](CC(C)C)NC(=O)CNC(=O)[C@H](Cc2ccccc2)NC1=O` [SEQ ID NO: 31] ({Palmitoyl-AEEA-AEEA-AEEA}-[Dap][Dap]GLSKGCFGLKLDRIGSQSGLGC-OH; disulfide 8-24; C-terminus assumed) was run?
A: The value was “significantly higher alveolar area”.

Q: And the “Alveolar area (inversely proportional to fibrosis)” value (in combination with pirfenidone 100 mg/kg orally)?
A: The value was “significantly higher alveolar area”.

Source: patent US20240325544A1, “CATIONIC LIPID FOR COVALENT MODIFICATION OF PEPTIDES” (PharmalN Corporation, priority 2023, published 2024)
